# In patent US8614201B2 (Janssen Pharmaceutica NV, priority 2009, dated 2013):
# Target: Human TRPA1 (Homo sapiens, UniProt O75762)
# Test: Assay 1: In vitro cellular testing of TRPA1 modulation (CHO-TREx, Fluo-3 calcium fluorescence, AITC agonist)
# Format: cell-based
# Parameters: expressed in transfected cells; host or cells: CHO-TREx cells (Invitrogen), vector pcDNA4/TO
# Settings: CHO-TREx cells expressing human TRPA1; Fluo-3 fluorescence (FLIPR/Tetra); agonist 15 μM allyl isothiocyanate (AITC); 30 minute antagonist incubation
# Experimental: Assay 1: In Vitro Cellular Testing of TRPA1 Modulation
# Human TRPA1 (NCBI accession number NM_007332.1) was cloned into pcDNA4/TO. CHO-TREx cells (Invitrogen, Carlsbad, Calif.) were stably transfected with pcDNA4/TO-TRPA1 using lipofection to generate a clonal cell line that expressed human TRPA1 in a tetracycline-inducible manner. Culture medium used was Ham's F-12 supplemented with 10% fetal bovine serum, 2 mM L-glutamine, 5 μg/ml blasticidin and 200 μg/ml zeocin. Cells were seeded in black-walled clear-bottom 96-well plates at a density of 50,000 cells per well and cultured overnight at 37° C. with 5% CO2 in culture medium supplemented with 1 μg/ml tetracycline. On the day of the experiment, cells were washed 3 times with HEPES buffered saline (in mM: NaCl 137, MgCl2 0.5, KCl 2, dextrose 5, CaCl2 2 and HEPES 10; pH 7.4). Cells were then loaded with calcium-sensitive fluorescent dye by incubation in the presence of 4 μM Fluo-3 AM (TefLabs, Austin, Tex.) at room temperature in the dark for 60 minutes. After incubation with dye, cells were washed in assay buffer and, if appropriate, antagonists were added at this time. Following a further 30 minute incubation, cells were assayed using a Fluorometric Imaging Plate Reader (FLIPR™) or a Tetra (both manufactured by Molecular Devices, CA) to simultaneously monitor Fluo-3 fluorescence in all wells (λexcitation=488 nm, λemission=540 nm). Changes in fluorescence were monitored for 3 minutes after the addition of 15 μM allyl isothiocyanate (AITC) as an agonist. Concentration-dependence of receptor blocking was determined by exposing each well of cells in duplicate rows of a 96-well plate to a serial dilution of test compound. The concentration series usually started at 10 μM with a three-fold serial decrement in concentration. The magnitude of the response to agonist challenge was determined by measuring the fluorescence before and 3 minutes after the addition of the agonist. The degree of blocking was determined by comparing the response to that of negative (no added antagonist) and positive (10 μM ruthenium red) control wells. Data were analyzed using a non-linear regression program (Origin; OriginLab, MA) to fit the concentration-response data to a Hill function. Antagonist potencies were determined as the concentration required to produce 50% reduction in the response as compared to the negative and positive controls.
# Chain of Human TRPA1 (O75762 whole entry): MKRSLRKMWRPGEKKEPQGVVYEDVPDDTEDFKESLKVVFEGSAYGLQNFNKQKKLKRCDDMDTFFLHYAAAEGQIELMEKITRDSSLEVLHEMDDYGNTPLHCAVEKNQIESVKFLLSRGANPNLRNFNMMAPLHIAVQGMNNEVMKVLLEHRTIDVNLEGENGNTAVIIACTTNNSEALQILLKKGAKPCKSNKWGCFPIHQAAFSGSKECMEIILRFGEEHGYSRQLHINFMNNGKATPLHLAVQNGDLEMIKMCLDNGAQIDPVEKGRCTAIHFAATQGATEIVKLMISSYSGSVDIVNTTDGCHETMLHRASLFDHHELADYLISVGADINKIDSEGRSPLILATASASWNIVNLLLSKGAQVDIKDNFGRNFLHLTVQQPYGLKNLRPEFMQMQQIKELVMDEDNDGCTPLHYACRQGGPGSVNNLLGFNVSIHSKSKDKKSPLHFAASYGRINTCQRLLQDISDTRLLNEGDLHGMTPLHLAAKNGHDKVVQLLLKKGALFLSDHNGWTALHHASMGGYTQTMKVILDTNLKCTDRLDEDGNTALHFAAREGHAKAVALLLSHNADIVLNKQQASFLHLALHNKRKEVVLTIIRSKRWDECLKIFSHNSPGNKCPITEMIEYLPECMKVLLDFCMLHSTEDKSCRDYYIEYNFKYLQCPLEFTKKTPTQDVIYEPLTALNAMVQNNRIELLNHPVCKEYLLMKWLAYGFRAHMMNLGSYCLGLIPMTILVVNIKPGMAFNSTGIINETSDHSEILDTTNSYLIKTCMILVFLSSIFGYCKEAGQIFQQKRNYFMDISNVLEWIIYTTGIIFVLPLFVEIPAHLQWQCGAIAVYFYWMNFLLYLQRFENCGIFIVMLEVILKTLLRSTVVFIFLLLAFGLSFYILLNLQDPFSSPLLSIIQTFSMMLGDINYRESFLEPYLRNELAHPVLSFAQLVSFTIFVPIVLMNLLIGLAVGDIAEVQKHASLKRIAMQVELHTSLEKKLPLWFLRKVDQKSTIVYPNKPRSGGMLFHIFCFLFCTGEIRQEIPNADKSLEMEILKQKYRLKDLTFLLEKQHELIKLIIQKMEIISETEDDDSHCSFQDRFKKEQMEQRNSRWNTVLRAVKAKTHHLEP
row,Structure (SMILES),IC50 [nM]
1,"CC(=O)N(C)C1CCN(c2nc(CNC(=O)[C@@H]3CCCN3S(=O)(=O)c3ccc(Cl)s3)cc(-c3ccc(C(F)(F)F)cc3)n2)C1 (stereo partly drawn) [Example 53, 1-(5-Chloro-thiophene-2-sulfonyl)-pyrrolidine-2S-carboxylic acid [2-[3-(acetyl-methyl-amino)-pyrrolidin-1-yl]-6-(4-trifluoromethyl-phenyl)-pyrimidin-4-ylmethyl]-amide]",426
2,"O=C(NCc1cc(-c2ccc(C(F)(F)F)cc2)nc(-c2cccnc2)n1)[C@@H]1CCCN1S(=O)(=O)c1ccc(F)cc1 [Example 3, 1-(4-Fluoro-benzenesulfonyl)-pyrrolidine-2S-carboxylic acid [2-pyridin-3-yl-6-(4-trifluoromethyl-phenyl)-pyrimidin-4-ylmethyl]-amide]",108
3,"O=C(NCc1cccc(-c2ccc(C(F)(F)F)cc2)c1)[C@@H]1CCCN1S(=O)(=O)c1ccc(F)cc1 [Example 65, 1-(4-Fluorobenzenesulfonyl)-pyrrolidine-2S-carboxylic acid (4′-trifluoromethylbiphenyl-3-ylmethyl)-amide]",15
4,"CN1CCC(CN2CCN(c3nc(CNC(=O)[C@@H]4CCCN4S(=O)(=O)c4ccc(F)cc4)cc(-c4ccc(C(F)(F)F)cc4)n3)CC2)CC1 [Example 20, 1-(4-Fluoro-benzenesulfonyl)-pyrrolidine-2S-carboxylic acid [2-[4-(1-methyl-piperidin-4-ylmethyl)-piperazin-1-yl]-6-(4-trifluoromethyl-phenyl)-pyrimidin-4-ylmethyl]-amide]",2050
5,"CNC1CCN(c2nc(CNC(=O)[C@@H]3CCCN3S(=O)(=O)c3ccc(Cl)s3)cc(-c3ccc(C(F)(F)F)cc3)n2)C1 (stereo partly drawn) [Example 41, 1-(5-Chloro-thiophene-2-sulfonyl)-pyrrolidine-2S-carboxylic acid [2-(3-methylamino-pyrrolidin-1-yl)-6-(4-trifluoromethyl-phenyl)-pyrimidin-4-ylmethyl]-amide]",2920
6,"CN(C)c1ccc(-c2cccc(CNC(=O)[C@@H]3CCCN3S(=O)(=O)c3ccc(F)cc3)c2)cc1 [Example 93, 1-(4-Fluorobenzenesulfonyl)-pyrrolidine-2S-carboxylic acid (4′-dimethylaminobiphenyl-3-ylmethyl)-amide]",86
7,"Cc1ccc(-c2cccc(CNC(=O)[C@@H]3CCCN3S(=O)(=O)c3ccc(F)cc3)c2)cc1 [Example 79, 1-(4-Fluoro-benzenesulfonyl)-pyrrolidine-2S-carboxylic acid (4′-methyl-biphenyl-3-ylmethyl)-amide]",137
8,"CN(C)CCN(C)c1nc(CNC(=O)[C@@H]2CCCN2S(=O)(=O)c2ccc(F)cc2)cc(-c2ccc(C(F)(F)F)cc2)n1 [Example 18, 1-(4-Fluoro-benzenesulfonyl)-pyrrolidine-2S-carboxylic acid [2-[(2-dimethylamino-ethyl)-methyl-amino]-6-(4-trifluoromethyl-phenyl)-pyrimidin-4-ylmethyl]-amide]",1850
9,"O=C(NCc1cc(-c2ccc(C(F)(F)F)cc2)nc(-c2ccc(C(F)(F)F)cc2)n1)[C@@H]1CCCN1S(=O)(=O)c1ccc(F)cc1 [Example 4, 1-(4-Fluoro-benzenesulfonyl)-pyrrolidine-2S-carboxylic acid [2,6-bis-(4-trifluoromethyl-phenyl)-pyrimidin-4-ylmethyl]-amide]",3
10,"CC(C)COc1nc(CNC(=O)[C@@H]2CCCN2S(=O)(=O)c2ccc(Cl)s2)cc(-c2ccc(C(F)(F)F)cc2)n1 [Example 43, 1-(5-Chloro-thiophene-2-sulfonyl)-pyrrolidine-2S-carboxylic acid [2-isobutoxy-6-(4-trifluoromethyl-phenyl)-pyrimidin-4-ylmethyl]-amide]",4

# More lines, now with the values ahead:
row,IC50 [nM],Structure (SMILES)
1,14,"O=C(NCc1cc(-c2ccc(C(F)(F)F)cc2)ncn1)[C@@H]1CCCN1S(=O)(=O)c1ccc([N+](=O)[O-])cc1 [Example 163, 1-(4-Nitrobenzenesulfonyl)-pyrrolidine-2S-carboxylic acid [6-(4-trifluoromethylphenyl)-pyrimidin-4-ylmethyl]-amide]"
2,1700,"CC(=O)c1ccc(S(=O)(=O)N2CCC[C@H]2C(=O)NCc2cc(-c3ccc(C(F)(F)F)cc3)ncn2)cc1 [Example 162, 1-(4-Acetylbenzenesulfonyl)-pyrrolidine-2S-carboxylic acid [6-(4-trifluoromethylphenyl)-pyrimidin-4-ylmethyl]-amide]"
3,380,"CNc1cc(CNC(=O)[C@@H]2C=CCN2S(=O)(=O)c2ccc(Cl)s2)cc(-c2ccc(C(F)(F)F)cc2)n1 [Example 379, (2S)-1-[(5-Chlorothiophen-2-yl)sulfonyl]-N-({2-(methylamino)-6-[4-(trifluoromethyl)phenyl]pyridin-4-yl}methyl)-2,5-dihydro-1H-pyrrole-2-carboxamide]"
4,598,"O=C(NCc1cc(NCc2ccccc2)nc(-c2ccc(C(F)(F)F)cc2)c1)[C@@H]1CC(F)(F)CN1S(=O)(=O)c1ccc(F)cc1 [Example 394, N-({2-(Benzylamino)-6-[4-(trifluoromethyl)phenyl]pyridin-4-yl}methyl)-4,4-difluoro-1-[(4-fluorophenyl)sulfonyl]-L-prolinamide]"
5,1910,"CC(Nc1cc(CNC(=O)[C@@H]2C=CCN2S(=O)(=O)c2ccc(Cl)s2)cc(-c2ccc(C(F)(F)F)cc2)n1)c1ccncc1 (stereo partly drawn) [Example 404, (2S)-1-[(5-Chlorothiophen-2-yl)sulfonyl]-N-({2-[(1-pyridin-4-ylethyl)amino]-6-[4-(trifluoromethyl)phenyl]pyridin-4-yl}methyl)-2,5-dihydro-1H-pyrrole-2-carboxamide]"
6,978,"O=C(NCc1cc(NCc2ccncc2)nc(-c2ccc(C(F)(F)F)cc2)c1)[C@@H]1CCCN1S(=O)(=O)c1ccc(F)cc1 [Example 385, 1-[(4-Fluorophenyl)sulfonyl]-N-({2-[(pyridin-4-ylmethyl)amino]-6-[4-(trifluoromethyl)phenyl]pyridin-4-yl}methyl)-L-prolinamide]"
7,833,"CC(Nc1cc(CNC(=O)[C@@H]2C=CCN2S(=O)(=O)c2ccc(F)cc2)cc(-c2ccc(C(F)(F)F)cc2)n1)c1ccccc1 (stereo partly drawn) [Example 406, (2S)-1-[(4-Fluorophenyl)sulfonyl]-N-({2-[(1-phenylethyl)amino]-6-[4-(trifluoromethyl)phenyl]pyridin-4-yl}methyl)-2,5-dihydro-1H-pyrrole-2-carboxamide]"
8,54,"CC(Nc1cc(CNC(=O)[C@@H]2CCCN2S(=O)(=O)c2ccc(F)cc2)cc(-c2ccc(C(F)(F)F)cc2)n1)c1ccccn1 (stereo partly drawn) [Example 408, 1-[(4-Fluorophenyl)sulfonyl]-N-({2-[(1-pyridin-2-ylethyl)amino]-6-[4-(trifluoromethyl)phenyl]pyridin-4-yl}methyl)-L-prolinamide]"
9,57,"CC(Nc1cc(CNC(=O)[C@@H]2CCCN2S(=O)(=O)c2ccc(Cl)s2)cc(-c2ccc(C(F)(F)F)cc2)n1)c1ccccc1 (stereo partly drawn) [Example 414, 1-[(5-Chlorothiophen-2-yl)sulfonyl]-N-({2-[(1-phenylethyl)amino]-6-[4-(trifluoromethyl)phenyl]pyridin-4-yl}methyl)-L-prolinamide]"
10,71,"O=C(NCc1cc(-c2ccc(OC(F)(F)F)cc2)ncn1)[C@@H]1CCCN1S(=O)(=O)c1ccc(F)cc1 [Example 177, 1-(4-Fluorobenzenesulfonyl)-pyrrolidine-2S-carboxylic acid [6-(4-trifluoromethoxyphenyl)-pyrimidin-4-ylmethyl]-amide]"
